Patent US20080132505A1 (Glaxo Group Limited, priority 2004, published 2008)
Read-outs that look alike come from different tables or passages of the source.

Target: human cannabinoid CB2 receptor (Homo sapiens, UniProt P34972)
Test: Cannabinoid CB2 receptor agonist activity (yeast reporter assay, FDGlu fluorescence)
Format: cell-based
Conditions: for Emax: read-out: efficacy value (Emax relative to HU210) at the cloned human cannabinoid CB2 receptor
How it was run: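 S. cerevisiae MMY23 expressing human CB2 with a Gpa1/Gαi3 chimeric G-protein, grown 24 h at 30 °C with agonist (1% DMSO) in selective media containing 10 mM 3-aminotriazole and FDGlu, pH 7.0. Fluorescein fluorescence (485/535 nm) fitted by four-parameter curve; Emax and EMR relative to HU210.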

[1] = EC50 value at the cloned human cannabinoid CB2 receptor
[2] = read-out: EC50 value at the cloned human cannabinoid CB2 receptor

Sequence of human cannabinoid CB2 receptor (P34972 whole entry): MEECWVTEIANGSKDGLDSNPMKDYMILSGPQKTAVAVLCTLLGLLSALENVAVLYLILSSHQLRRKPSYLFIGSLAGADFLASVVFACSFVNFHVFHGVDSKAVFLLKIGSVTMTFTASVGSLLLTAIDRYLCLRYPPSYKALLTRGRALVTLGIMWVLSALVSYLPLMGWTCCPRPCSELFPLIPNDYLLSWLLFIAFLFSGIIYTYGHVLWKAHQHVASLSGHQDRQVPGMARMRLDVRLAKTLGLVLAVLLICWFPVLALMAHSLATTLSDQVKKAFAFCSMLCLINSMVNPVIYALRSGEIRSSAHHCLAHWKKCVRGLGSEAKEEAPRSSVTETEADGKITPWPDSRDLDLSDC

Row | EC50 [2] [nM] | SMILES | EC50 [1] [nM] | Emax [%]
1 |  | O=C(NCC1CCC1)c1cnc(Nc2ccc(C(F)(F)F)cc2Cl)nc1C(F)(F)F [Example 102, 2-(2-Chloro-4-trifluoromethylphenylamino)-4-trifluoromethyl-pyrimidine-5-carboxylic acid cyclobutylmethyl-amide] | 300 to 1000 | > 50
2 |  | N#Cc1ccc(Nc2ncc(C(=O)NCC3CCC3)c(C(F)(F)F)n2)c(Cl)c1 [Example 103, 2-(2-Chloro-4-cyanophenylamino)-4-trifluoromethyl-pyrimidine-5-carboxylic acid cyclobutylmethyl-amide] | 300 to 1000 | > 50
3 |  | O=C(NCC1CCOCC1)c1cnc(Nc2ccc(Cl)cc2C(F)(F)F)nc1C(F)(F)F [Example 104, 2-(2-Trifluoromethyl-4-chlorophenylamino)-4-trifluoromethyl-pyrimidine-5-carboxylic acid (tetrahydro-pyran-4-ylmethyl)-amide] | 300 to 1000 | > 50
4 |  | O=C(NCC1CCC1)c1cnc(Nc2ccc(Br)cc2C(F)(F)F)nc1C(F)(F)F [Example 105, 2-(2-Trifluoromethyl-4-bromophenylamino)-4-trifluoromethyl-pyrimidine-5-carboxylic acid cyclobutylmethyl-amide] | 300 to 1000 | > 50
5 |  | O=C(NCC1CCCCC1)c1cnc(Nc2ccc(Br)cc2C(F)(F)F)nc1C(F)(F)F [Example 106, 2-(2-Trifluoromethyl-4-bromophenylamino)-4-trifluoromethyl-pyrimidine-5-carboxylic acid cyclohexylmethyl-amide] | 300 to 1000 | > 50
6 |  | O=C(NCC1CCOCC1)c1cnc(Nc2cccc(F)c2F)nc1C(F)(F)F [Example 107, 2-(2,3-Difluoro-phenylamino)-4-tri-fluoromethyl-pyrimidine-5-carboxylic acid (tetrahydropyran-4-ylmethyl)-amide] | 300 to 1000 | > 50
7 |  | Cc1ccc(Cl)cc1Nc1ncc(C(=O)NCC2CCOCC2)c(C(F)(F)F)n1 [Example 108, 2-(5-Chloro-2-methyl-phenylamino)-4-tri-fluoromethyl-pyrimidine-5-carboxylic acid (tetrahydropyran-4-ylmethyl)-amide] | 300 to 1000 | > 50
8 |  | N#Cc1c(Cl)cccc1Nc1ncc(C(=O)NCC2CCOCC2)c(C(F)(F)F)n1 [Example 109, 2-(3-Chloro-2-cyano-phenylamino)-4-tri-fluoromethyl-pyrimidine-5-carboxylic acid (tetrahydropyran-4-ylmethyl)-amide] | 300 to 1000 | > 50
9 |  | Cc1ccc(Nc2ncc(C(=O)NCC3CCOCC3)c(C(F)(F)F)n2)c(Cl)c1 [Example 110, 2-(2-Chloro-4-methyl-phenylamino)-4-tri-fluoromethyl-pyrimidine-5-carboxylic acid (tetrahydropyran-4-ylmethyl)-amide] | 300 to 1000 | > 50
10 |  | N#Cc1cc(Nc2ncc(C(=O)NCC3CCOCC3)c(C(F)(F)F)n2)ccc1Cl [Example 111, 2-(4-Chloro-3-cyano-phenylamino)-4-tri-fluoromethyl-pyrimidine-5-carboxylic acid (tetrahydropyran-4-ylmethyl)-amide] | 300 to 1000 | > 50
11 |  | Cc1cc(Cl)ccc1Nc1ncc(C(=O)NCC2CCOCC2)c(C(F)(F)F)n1 [Example 112, 2-(4-Chloro-2-methyl-phenylamino)-4-tri-fluoromethyl-pyrimidine-5-carboxylic acid (tetrahydropyran-4-ylmethyl)-amide] | 300 to 1000 | > 50
12 |  | Cc1ccc(Cl)c(Nc2ncc(C(=O)NCC3CCOCC3)c(C(F)(F)F)n2)c1 [Example 113, 2-(2-Chloro-5-methyl-phenylamino)-4-tri-fluoromethyl-pyrimidine-5-carboxylic acid (tetrahydropyran-4-ylmethyl)-amide] | 300 to 1000 | > 50
13 | 20 to 300 | COc1cccc(Nc2ncc(C(=O)NCC3CCCCC3)c(C(F)(F)F)n2)c1 [Example 163, 2-(3-Methoxyphenylamino)-4-trifluoromethyl-pyrimidine-5-carboxylic acid cyclohexylmethyl-amide] |  | 
14 |  | O=C(NCC1(O)CCCCC1)c1cnc(Nc2cccc(Cl)c2)nc1C(F)(F)F [Example 164, 2-(3-Chlorophenylamino)-4-trifluoromethyl-pyrimidine-5-carboxylic acid (1-hydroxycyclohexylmethyl)-amide] | 20 to 300 | > 50
15 |  | O=C(NCC1(O)CCCCC1)c1cnc(Nc2cccc(Br)c2)nc1C(F)(F)F [Example 165, 2-(3-Bromophenylamino)-4-trifluoromethyl-pyrimidine-5-carboxylic acid (1-hydroxycyclohexylmethyl)-amide] | 20 to 300 | > 50
16 |  | O=C(NCC1CCCCC1)c1cnc(Nc2ccc(F)c(Cl)c2)nc1C(F)(F)F [Example 166, 2-(3-Chloro-4-fluorophenylamino)-4-trifluoromethyl-pyrimidine-5-carboxylic acid cyclohexylmethyl-amide] | 20 to 300 | > 50

Row | EC50 [2] [nM] | SMILES | EC50 [1] [nM] | Emax [%]
17 |  | O=C(NCC1CCCCC1)c1cnc(Nc2cccc(Cl)c2F)nc1C(F)(F)F [Example 167, 2-(3-Chloro-2-fluorophenylamino)-4-trifluoromethyl-pyrimidine-5-carboxylic acid cyclohexylmethyl-amide] | 20 to 300 | > 50
18 |  | O=C(NCC1CCCCC1)c1cnc(Nc2cc(Cl)ccc2F)nc1C(F)(F)F [Example 168, 2-(5-Chloro-2-fluorophenylamino)-4-trifluoromethyl-pyrimidine-5-carboxylic acid cyclohexylmethyl-amide] | 20 to 300 | > 50
19 |  | O=C(NCC1CCCCC1)c1cnc(Nc2cc(F)cc(F)c2)nc1C(F)(F)F [Example 169, 2-(3,5-Difluorophenylamino)-4-trifluoromethyl-pyrimidin-5-carboxylic acid cyclohexylmethyl-amide] | 20 to 300 | > 50
20 |  | O=C(NCC1CCCCC1)c1cnc(Nc2ccc(Cl)cc2C(F)(F)F)nc1C(F)(F)F [Example 170, 2-(4-Chloro-2-trifluoromethylphenylamino)-4-trifluoromethyl-pyrimidine-5-carboxylic acid cyclohexylmethyl-amide] | 20 to 300 | > 50
21 |  | N#Cc1cccc(Nc2ncc(C(=O)NCC3CCCCC3)c(C(F)(F)F)n2)c1 [Example 171, 2-(3-Cyanophenylamino)-4-trifluoromethyl-pyrimidine-5-carboxylic acid cyclohexylmethyl-amide] | 20 to 300 | > 50
22 |  | N#Cc1cccc(Nc2ncc(C(=O)NCC3CCOCC3)c(C(F)(F)F)n2)c1 [Example 172, 2-(3-Cyanophenylamino)-4-trifluoromethyl-pyrimidine-5-carboxylic acid (tetrahydropyran-4-ylmethyl)-amide] | 20 to 300 | > 50
23 |  | N#Cc1cccc(Nc2ncc(C(=O)NCC3CCCC3)c(C(F)(F)F)n2)c1 [Example 173, 2-(3-Cyanophenylamino)-4-trifluoromethyl-pyrimidine-5-carboxylic acid cyclopentylmethyl-amide] | 20 to 300 | > 50
24 | 20 to 300 | N#Cc1ccc(Nc2ncc(C(=O)NCC3CCCCC3)c(C(F)(F)F)n2)cc1 [Example 174, 2-(4-Cyanophenylamino)-4-trifluoromethyl-pyrimidine-5-carboxylic acid cyclohexylmethyl-amide] |  | 
25 |  | N#Cc1ccc(Nc2ncc(C(=O)NCC3CCOCC3)c(C(F)(F)F)n2)cc1 [Example 175, 2-(4-Cyanophenylamino)-4-trifluoromethyl-pyrimidine-5-carboxylic acid (tetrahydropyran-4-ylmethyl)-amide] | 20 to 300 | > 50
26 |  | COc1cc(Nc2ncc(C(=O)NCC3CCOCC3)c(C(F)(F)F)n2)cc(C(F)(F)F)c1 [Example 177, 2-(3-Methoxy-5-(trifluoromethyl)phenylamino)-4-trifluoromethyl-pyrimidine-5-carboxylic acid (tetrahydropyran-4-ylmethyl)-amide] | 20 to 300 | > 50
27 |  | O=C(NCC1CCOCC1)c1cnc(Nc2cc(C(F)(F)F)cc(C(F)(F)F)c2)nc1C(F)(F)F [Example 178, 2-(3,5-Bis-trifluoromethylphenylamino)-4-trifluoromethyl-pyrimidine-5-carboxylic acid (tetrahydropyran-4-ylmethyl)-amide] | 20 to 300 | > 50
28 |  | O=C(NCC1CCOCC1)c1cnc(Nc2cc(Br)cc(C(F)(F)F)c2)nc1C(F)(F)F [Example 179, 2-(3-Bromo-5-(trifluoromethyl)phenylamino)-4-trifluoromethyl-pyrimidine-5-carboxylic acid (tetrahydropyran-4-ylmethyl)-amide] | 20 to 300 | > 50
29 |  | O=C(NCC1CCOCC1)c1cnc(Nc2cc(F)cc(C(F)(F)F)c2)nc1C(F)(F)F [Example 180, 2-(3-Fluoro-5-(trifluoromethyl)phenylamino)-4-trifluoromethyl-pyrimidine-5-carboxylic acid (tetrahydropyran-4-ylmethyl)-amide] | 20 to 300 | > 50
30 |  | O=C(NCC1CCOCC1)c1cnc(Nc2cccc(C(F)(F)F)c2F)nc1C(F)(F)F [Example 181, 2-(2-Fluoro-3-(trifluoromethyl)phenylamino)-4-trifluoromethyl-pyrimidine-5-carboxylic acid (tetrahydropyran-4-ylmethyl)-amide] | 20 to 300 | > 50
31 |  | CSc1c(Nc2ncc(C(=O)NCC3CCOCC3)c(C(F)(F)F)n2)cccc1C(F)(F)F [Example 182, 2-(2-Methylthio-3-(trifluoromethyl)phenylamino)-4-trifluoromethyl-pyrimidine-5-carboxylic acid (tetrahydropyran-4-ylmethyl)-amide] | 20 to 300 | > 50
